Where two headings read alike, the source gives them in different places. Bridge positions count the residues as written; N and C are the ends. Peptide text beside a SMILES is read from it.

Data set [1] deals with KB31 human epidermoid carcinoma cell line. The following applies: for cell viability: KB31 line, peptide 150 μM, untreated 100%. As to the method: (§1) The cytotoxic activity assays were performed using a […] human epidermoid carcinoma cell line (American Type Culture Collection) and, as control, non-tumor cell lines of normal dermal fibroblasts (NDFa) and immortalized human keratinocytes (HACAT).
(§2) The used cells were placed in culture dishes (Corning®) and treated with the peptide (at a concentration of 150 μM) for 1 day and 6 days. In parallel, the same lines were prepared, without being treated with the peptide, as a negative control.
(§3) The analyzes were performed with a resazurin-based cytotoxicity assay (Sigma Aldrich) and a trypan blue exclusion assay.

A short description of the next data set: in vitro. As to the method: as §1, §2, §3
Data set [2] has as its system KB31 human epidermoid carcinoma cell line. Briefly: apoptotic activity assay (BD cell viability kit). The data set is classed as cell-based. Conditions: peptide 150 μM. As to the method: (§4) The same cell lines were used to verify the apoptotic activity of the peptide, providing the same treatment and the same negative controls. The percentage of apoptotic cells was determined using a BD™ cell viability kit (BD Biosciences), following the manufacturer's instructions. The results are expressed as average values in percentages taking into account the standard error of the mean (SEM).

Data set [3] concerns immortalized human keratinocytes (HACAT). Nature of the data set: apoptotic activity assay (BD cell viability kit). Type of data set: cell-based. Conditions: HACAT line, peptide 150 μM. As to the method:
as §4

The test system of data set [4] is normal dermal fibroblasts (NDFa). Briefly: apoptotic activity assay (BD cell viability kit). Conditions: NDFa line, peptide 150 μM. The data set is classed as cell-based. As to the method: as §4
Where [5] appears, read: human, immortalized keratinocytes (HACAT).
[6] abbreviates: normal dermal fibroblasts (NDFa).

The cell viability is the share of living cells, or the viability signal relative to a control. Read a high cell viability as less harm to the cells. The viability is a read-out of living cells in per cent, often relative to untreated cells. A higher viability goes with better survival. Turning to `CC(C)C[C@@H]1NC(=O)[C@H](CC(=O)O)NC(=O)[C@H](CC(N)=O)NC(=O)[C@H](CCCCN)NC(=O)[C@H](CCCNC(=N)N)NC(=O)CNC(=O)[C@H](CCC(=O)O)NC(=O)[C@H](Cc2c[nH]cn2)NC(=O)CNC(=O)[C@H](CCCNC(=N)N)NC(=O)[C@H](CCC(=O)O)NC(=O)[C@H](CO)NC(=O)[C@H](CC(C)C)NC(=O)[C@H]([C@@H](C)O)NC(=O)[C@H](CC(C)C)NC(=O)[C@H](CC(C)C)NC(=O)[C@@H]2CCCN2C(=O)[C@@H](NC(=O)[C@@H](N)CO)CSSC[C@@H](C(=O)N[C@@H](CCCNC(=N)N)C(=O)O)NC(=O)[C@H](CCC(=O)O)NC(=O)[C@H](C(C)C)NC(=O)[C@H](CCCCN)NC(=O)[C@H](CCCCN)NC1=O` [peptide] (H-SCPLLTLSERGHEGRKNDLKKVECR-OH; disulfide 2-24; N-terminus assumed), the cell viability in data set [1] (1 day) is given as 77%; in data set [1] (6 days) it was “approximately 45%”. Further, the “selectivity toward tumor cells” value in data set [1] (KB31 tumor cells versus non-tumor NDFa and HACAT, cytotoxic and apoptotic assays) is “good selectivity toward tumor cells”. The viability at 1 day, 150 μM was around 85% in “in vitro” (setting [5]) and around 80% in the data set “in vitro” (setting [6]). Also, the viability at 6 days, 150 μM in the data set “in vitro” (setting [5]) is around 85%; in the data set “in vitro” (setting [6]), around 80%. The “apoptosis (percentage of apoptotic cells)” value is recorded as “less than 5%” in data set [2] (1 day); “more than 50%” in data set [2] (6 days, negative control just over 10%); “less than 5%” in data set [3] (1 day); “less than 5%” in data set [3] (6 days); “less than 5%” in data set [4] (1 day); “less than 5%” in data set [4] (6 days).

The values above are taken from patent US20260217776A1, “COMPOUND WITH ANTITUMOR ACTIVITY, COR[…] AND COR[…]” (priority 2023, published 2026).
